The source of these data is PMC5503534, “Stable aneuploid tumors cells are more sensitive to TTK inhibition than chromosomally unstable cell lines” (Oncotarget, 2017).

Read-outs that look alike come from different tables or passages of the source. Where only a bound is given, the exact number is not on record here.

As usually defined, the IC50 is the concentration that inhibits the measured activity by half.

For experiment [1], the system named is post-tetraploid HPT2 cells. The experiment is described as follows: Cell proliferation assay, post-tetraploid HPT2. The format is cell-based, human. The conditions noted are these: HPT2, five days; for Efficacy (%): average of three experiments; for IC50: Homo sapiens, 120 h, geometric average of three experiments. The procedure: (§1) Cancer cell lines and hTERT-RPE1 retinal pigment epithelial cells were purchased from the American Type Culture Collection (ATCC) (Manassas, VA, U.S.A.) from 2011 to 2014 [41] and cultured in ATCC-recommended media. All experiments were carried out within nine passages of the original vials from ATCC who authenticated the cancer cell lines by short tandem repeat analysis. We verified the mutant status of seven frequently mutated cancer genes (i.e., BRAF, CDKN2A, CTNNB1, EGFR, KRAS, PIK3CA and TP53) by full exome or targeted sequencing. Sequencing results were compared to COSMIC version 75 of the Genomics of Drug Sensitivity in Cancer data base and provided additional authentication of the identity of the cell lines. The isolation and characterization of post-tetraploid clones from HCT 116 has been described previously. The mutation status of the CDKN2A, CTNNB1, KRAS and PIK3CA genes were confirmed by sequence analysis in both the HCT 116 parental cell line and post-tetraploid clones. All experiments were carried out within nine passages of the original cell stocks that were transferred from the Max Planck Institute of Biochemistry (Martinsried, Germany) to Netherlands Translational Research Center.
(§2) Cell proliferation assays were carried out as described using ATPlite 1step™ (Perkin Elmer, Groningen, The Netherlands). Exposure time was 72 or 120 hours as indicated in the Legends to the Figures. Percentage growth was calculated, relative to the growth of unexposed cells, and relative IC50s were fitted using a four-parameter logistics curve (XLfit 5.3, IDBS). For Figure 4A and 7 dose response curves were redrawn in Prism. To compare the inhibitory potency of compounds in proliferation assays with HCT 116 parental and tetraploid clones, pIC50 (−^10logIC50) values were compared in three independent experiments. A two-tailed Student's t-test was performed to determine whether differences in sensitivity (ΔpIC50) were statistically significant. Caspase 3/7 activity of cancer cells was measured using Caspase-Glo 3/7 Assay kit (cat no. G8093, Promega, Madison USA). Viability of T-ALL cell samples was determined using ATPlite and exposure of 72 hours as described previously.

Experiment [2] relates to HCT 116 vs HPT1, -2 and -4. The experiment is described as follows: Drug sensitivity analysis, HCT116 diploid versus tetraploids. The format is cell-based, human. Particulars: for Δeff. (%) / Phenotype (potency): HCT 116 vs HPT1, -2 and -4; for Phenotype (efficacy): HCT 116 vs HPT1, -2 and -4, based on % effect; for Phenotype (potency): 'resistant' indicates that tetraploids are resistant; for ΔpIC50: average log shift in sensitivity between parental and tetraploids. As to the method:
as §2

In experiment [3] the test system is post-tetraploid HPT4 cells. Description: Cell proliferation assay, post-tetraploid HPT4. The format is cell-based, human. The conditions noted are these: HPT4, five days; for Efficacy (%): average of three experiments; for IC50: Homo sapiens, 120 h, geometric average of three experiments. The procedure: as §1, §2
The test system of experiment [4] is post-tetraploid HPT1 cells. The experiment is described as follows: Cell proliferation assay, post-tetraploid HPT1. The conditions noted are these: HPT1, five days; for Efficacy (%): average of three experiments; for IC50: Homo sapiens, 120 h, geometric average of three experiments. The format is cell-based, human. As to the method:
as §1, §2

Experiment [5] concerns HCT 116 colon carcinoma cell line. The experiment is described as follows: Cell proliferation assay (ATPlite), HCT 116. In kind it is cell-based, human. Particulars: for Eff. (%): HCT 116, five days, maximum inhibitory effect, average of three experiments; for IC50: Homo sapiens, 120 h, HCT 116 near-diploid, five days, geometric average of three experiments (Suppl. Table 2A). The procedure: as §2
In general terms: In ATP-based viability assays light output follows the ATP content of the culture.

For experiment [6], the system named is pediatric T-ALL patient cell samples. The experiment is described as follows: Viability assays with T-ALL patient samples. The format is cell-based, human. The conditions noted are these: Homo sapiens, 72 h. As to the method:
Written informed consent was obtained from the parents or legal guardians of each T-ALL patient to use excess diagnostic material for research purposes. The study was performed in accordance with the Institutional Review Board of the Erasmus Medical Center Rotterdam (The Netherlands) and in accordance with the Declaration of Helsinki. Leukemic cells were harvested from blood or bone marrow samples and were enriched to ≥ 90% purity.
as §2

The test system of experiment [7] is OVCAR-3 ovary adenocarcinoma cell line. The conditions noted are these: three day cell proliferation assay; cited from earlier work.
In experiment [8] the test system is DoTc2 4510 cervix carcinoma cell line. The conditions noted are these: three day cell proliferation assay; cited from earlier work.
The test system of experiment [9] is A-172 glioblastoma cell line. The conditions noted are these: three day cell proliferation assay; cited from earlier work.
Experiment [10] deals with HCT 116 colon carcinoma cell line. Particulars: three day cell proliferation assay; cited from earlier work.
For experiment [11], the system named is MG-63 osteosarcoma cell line. Particulars: three day cell proliferation assay; cited from earlier work.
Experiment [12] has as its system LoVo colorectal adenocarcinoma cell line. Particulars: three day cell proliferation assay; cited from earlier work.

As for `CCn1cc(-c2ccnc3[nH]c(-c4cccc(CN(C)C)c4)cc23)c(-c2ccc(NC(=O)N(C)C)cc2)n1` [GSK-1070916], in experiment [1], the “Efficacy (%)” value is 100% and the midpoint of inhibition, the IC50, lay at 1.7 µM. Moreover, in experiment [2], the “Δeff. (%)” value is on record as 16%, the “Phenotype (efficacy)” value was “sensitive”, the “Phenotype (potency)” value is “resistant” and the ΔpIC50 is reported as 1.41. For the same molecule, in experiment [3], the “Efficacy (%)” value amounted to 100% and the IC50 turned out to be 1.68 µM. Besides, in [4], the “Efficacy (%)” value stood at 32% and the half-inhibitory concentration (IC50) was determined as 0.016 µM. In [5], the “Eff. (%)” value worked out at 61% and the IC50 is 0.014 µM.

On to `O=C(O)c1ccc(Nc2ncc3c(n2)-c2ccc(Cl)cc2C(c2c(F)cccc2F)=NC3)cc1` [MLN-8054], for which, in [1], the “Efficacy (%)” value came to 52% and the IC50 amounted to 1.55 µM. Moreover, in [2], the “Δeff. (%)” value was −28%, the “Phenotype (efficacy)” value is “resistant”, the “Phenotype (potency)” value was “resistant” and the ΔpIC50 was 0.28. For the same molecule, in [3], the “Efficacy (%)” value is reported as 56% and the IC50 is 1.2 µM. In addition, in experiment [4], the “Efficacy (%)” value is on record as 61% and the IC50 was 1.33 µM. Further, in experiment [5], the “Eff. (%)” value was 85% and the IC50 was found to be 0.715 µM.

For `N[C@@H](CSC(c1ccccc1)(c1ccccc1)c1ccccc1)C(=O)O` [STLC, S-trityl-L-cysteine], in experiment [1], the “Efficacy (%)” value is reported as 93% and the IC50 came out at 1.34 µM. Moreover, in experiment [2], the “Δeff. (%)” value was −6%, the “Phenotype (efficacy)” value is recorded as “resistant”, the “Phenotype (potency)” value is reported as “resistant” and the ΔpIC50 was 0.34. Moreover, in experiment [3], the “Efficacy (%)” value is 95% and half-maximal inhibition (IC50) required 1.4 µM. Also, in experiment [4], the “Efficacy (%)” value is listed as 90% and 2.04 µM corresponded to half-maximal inhibition (IC50). The “Eff. (%)” value in experiment [5] is reported as 99%.

For `CC(C)C[C@H](NC(=O)[C@H](Cc1ccccc1)NC(=O)c1cnccn1)B(O)O` [bortezomib], the IC50 was below 0.01 µM in experiment [6] (all ten T-ALL patient samples, three days, read-out: IC50); 0.003 µM in experiment [6] (patient sample 491, three-day assay, read-out: IC50); 0.003 µM in [6] (patient sample 1033, three-day assay, read-out: IC50); 0.002 µM in experiment [6] (patient sample 1816, three-day assay, read-out: IC50); 0.003 µM in experiment [6] (patient sample 2323, three-day assay, read-out: IC50); 0.004 µM in experiment [6] (patient sample 3594, three-day assay, read-out: IC50). In addition, the IC50 in experiment [6] (patient sample 3852, three-day assay, read-out: IC50) came out at 0.004 µM; in [6] (patient sample 4023, three-day assay, read-out: IC50), 0.003 µM; in [6] (patient sample 4126, three-day assay, read-out: IC50), 0.003 µM; in [6] (patient sample 4992, three-day assay, read-out: IC50), 0.003 µM; in experiment [6] (patient sample 10110, three-day assay, read-out: IC50), 0.003 µM.

Regarding `N.N.[Cl][Pt][Cl]` [cisplatin], the half-inhibitory concentration (IC50) in experiment [7] is 11.3 µM; in [8], 7.4 µM; in experiment [9], 15.9 µM; in [10] it was 6.21 µM; in experiment [11] it was 4.51 µM; in experiment [12] it was 6.73 µM.

Consider `CN(C)/N=N/c1[nH]cnc1C(N)=O` [dacarbazine], for which the IC50 in [7] is 13.9 µM; in [8] it was 3.09 µM; in experiment [9] it was 31.6 µM; in experiment [10], 18.6 µM; in experiment [11], 16 µM; in experiment [12], 5.29 µM.

With `COc1cccc2c1C(=O)c1c(O)c3c(c(O)c1C2=O)C[C@@](O)(C(C)=O)C[C@@H]3O[C@H]1C[C@H](N)[C@H](O)[C@H](C)O1` [daunorubicin], the IC50 in experiment [6] (all ten T-ALL patient samples, three days) was below 0.1 µM; in [6] (patient sample 491, three-day assay), 0.08 µM; in [6] (patient sample 1033, three-day assay) it was 0.043 µM; in experiment [6] (patient sample 1816, three-day assay) it was 0.038 µM; in [6] (patient sample 2323, three-day assay), 0.08 µM; in experiment [6] (patient sample 3594, three-day assay), 0.043 µM. Besides, the IC50 in [6] (patient sample 3852, three-day assay) is 0.061 µM; in experiment [6] (patient sample 4023, three-day assay) it was 0.057 µM; in [6] (patient sample 4126, three-day assay) it was 0.071 µM; in [6] (patient sample 4992, three-day assay) it was 0.041 µM; in [6] (patient sample 10110, three-day assay), 0.042 µM.

As to `COc1cccc2c1C(=O)c1c(O)c3c(c(O)c1C2=O)C[C@@](O)(C(=O)CO)C[C@@H]3O[C@H]1C[C@H](N)[C@H](O)[C@H](C)O1` [doxorubicin], in [1], the “Efficacy (%)” value was found to be 100% and the IC50 came out at 0.13 µM. In [2], the “Δeff. (%)” value was determined as 3%, the “Phenotype (efficacy)” value is on record as “sensitive”, the “Phenotype (potency)” value is “resistant” and the ΔpIC50 was 0.46. For the same molecule, in experiment [3], the “Efficacy (%)” value is recorded as 100% and the IC50 is 0.083 µM. In experiment [4], the “Efficacy (%)” value was found to be 99% and the IC50 turned out to be 0.069 µM. In addition, in experiment [5], the “Eff. (%)” value is reported as 97% and the IC50 was 0.031 µM.

For `CC(=O)O[C@H]1C(=O)[C@@]2(C)[C@H]([C@H](OC(=O)c3ccccc3)[C@]3(O)C[C@H](OC(=O)[C@H](O)[C@@H](NC(=O)c4ccccc4)c4ccccc4)C(C)=C1C3(C)C)[C@]1(OC(C)=O)CO[C@@H]1C[C@@H]2O` [paclitaxel], the IC50 was 0.026 µM in experiment [7]; 0.01 µM in experiment [8]; 0.017 µM in experiment [9]; 0.005 µM in experiment [10]; 0.006 µM in experiment [11]; 0.023 µM in [12].

For the molecule `CC[C@@H]1C(=O)N(C)c2cnc(Nc3ccc(C(=O)N[C@H]4CC[C@H](N5CCN(CC6CC6)CC5)CC4)cc3OC)nc2N1C(C)C` [volasertib], in experiment [1], the “Efficacy (%)” value was determined as 65% and the IC50 turned out to be 0.045 µM. Further, in [2], the “Δeff. (%)” value is −21%, the “Phenotype (efficacy)” value is on record as “resistant”, the “Phenotype (potency)” value is on record as “resistant” and the ΔpIC50 was 0.19. Further, in [3], the “Efficacy (%)” value is reported as 84% and the IC50 came to 0.049 µM. In [4], the “Efficacy (%)” value amounted to 82% and the IC50 came to 0.026 µM. For the same molecule, in experiment [5], the “Eff. (%)” value worked out at 98% and the IC50 turned out to be 0.025 µM.
